Test results as given in US20190231688A1, “METHOD OF ADMINISTERING EMULSION FORMULATIONS OF AN NK-1 RECEPTOR ANTAGONIST” (Heron Therapeutics, Inc., priority 2018, published 2019).

Assay: Pharmacokinetics of aprepitant emulsion versus fosaprepitant solution, intravenous
Format: in vivo, male Sprague-Dawley rats
Settings: rat, 14 mg/kg aprepitant equivalent
Description: The pharmacokinetics of an aprepitant emulsion prepared according to Example 1 was determined. Two groups of six male Sprague-Dawley rats each were injected intravenously with, respectively, fosaprepitant in solution or aprepitant emulsion prepared according to Example 1. All drugs were administered at an effective concentration equivalent to 14 mg/kg aprepitant. Blood from all rats was collected at the appropriate time intervals and processed to plasma by centrifugation. Plasma samples were analyzed by LC-MS/MS for aprepitant and fosaprepitant, as appropriate. A plasma concentration versus time curve of aprepitant for the emulsion described in Example 1 and for fosaprepitant is presented in FIG. 2 (fosaprepitant in solution, •; aprepitant emulsion, ▴). The curves indicate the initial aprepitant level reached immediately after injection of the aprepitant emulsion was almost 3 times higher than the initial aprepitant level reached immediately after injection of the fosaprepitant solution.

## C[C@@H](O[C@H]1OCCN(Cc2nc(O)n(P(=O)(O)O)n2)[C@H]1c1ccc(F)cc1)c1cc(C(F)(F)F)cc(C(F)(F)F)c1 [fosaprepitant]
  Conversion of fosaprepitant to aprepitant: delay in the conversion of fosaprepitant to aprepitant
